From publication PMC7363806, “Characterization of Corosolic Acid as a KPC-2 Inhibitor That Increases the Susceptibility of KPC-2-Positive Bacteria to Carbapenems” (Frontiers in Pharmacology, 2020)

Target: T1, KPC-2 (Klebsiella pneumoniae, UniProt Q9F663)
T1 construct: recombinant KPC-2 from pET28a (bla KPC-2 gene, NCBI NG_049253.1), expressed in E. coli BL21(DE3), Ni column purified
Test: nitrocefin hydrolysis assay with purified KPC-2, absorbance at […] nm
Format: biochemical

T1 sequence (Q9F663 25-293 limits assumed): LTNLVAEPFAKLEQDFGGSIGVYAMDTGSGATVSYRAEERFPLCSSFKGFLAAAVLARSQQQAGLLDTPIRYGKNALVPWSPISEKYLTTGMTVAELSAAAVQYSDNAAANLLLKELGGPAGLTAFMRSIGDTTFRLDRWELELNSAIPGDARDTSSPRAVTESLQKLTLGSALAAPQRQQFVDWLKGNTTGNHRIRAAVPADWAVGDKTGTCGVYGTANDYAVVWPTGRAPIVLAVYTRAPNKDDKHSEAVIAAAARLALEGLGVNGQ

C[C@H]1[C@H](C)CC[C@]2(C(=O)O)CC[C@]3(C)C(=CC[C@@H]4[C@@]5(C)C[C@@H](O)[C@H](O)C(C)(C)[C@@H]5CC[C@]43C)[C@H]12 [CA, corosolic acid]
IC50: 4.97 µM
